Measurements taken from US7704502B2, “Combinations of antibodies selective for DR5 and other therapeutic agents” (The UAB Research Foundation, priority 2000, dated 2010).

Legend:
CLL B cells = assay: Apoptosis/cytotoxicity in CLL B cells in vitro; type: cell-based, human
PC-3 cells = assay: Combination study of TRA-8 with Paclitaxel (XTT); type: cell-based, human; conditions: Paclitaxel alone, concentrations of up to 200 nM
Procedure: Human prostate cancer cell line PC-3 is obtained from American Tissue Culture Collection (ATCC) and maintained in F-12K Nutrient Mixture (21127-022, Gibco BRL) containing 10% fetal bovine serum (FBS, Hyclone), 1% L-Glutamine-200 mM (25030-149, Gibco BRL) and 0.5% Penicillin Streptomycin Solution (P-7539, Sigma). RPMI1640 medium (MED-008, IWAKI) supplemented with 10% FBS and 0.5% Penicillin Streptomycin Solution is used in the following experiment. Exponentially growing PC-3 cells are collected by trypsinization and washed twice with fresh medium. The cells are then counted, resuspended in fresh medium at a density of 5×10^4 cells/ml and distributed in triplicate into flat-bottomed 96 well plates (3598, Corning-Coster) in a total volume of 100 μl/well one day before the start of the experiment. A representative anti-cancer drug, Paclitaxel (169-18611, Wako) dissolved in dimethylsulfoxide (10 mg/ml) is diluted in fresh medium and then added to the 96-well plates containing the cells at 50 μl/well. The final concentrations of dimethylsulfoxide are less than 0.1%. […] After incubation for a further 24 hr, 50 μl of Minimum Essential Medium (11095-098, Gibco BRL) containing 1 mg/ml of XTT and […] of PMS is added to the wells and the plates are incubated for 6 hr. OD450 is then measured by SPECTRA MAX 250 (Molecular Devices) and the cell viability is calculated as follows.

[1] = tested on: 2LMP human breast cancer xenografts; assay: TRA-8 therapy alone or with chemotherapy or radiation, breast cancer xenografts; type: in vivo, athymic nude mice; conditions: aggregate of 6 experiments
Procedure: Athymic nude mice were injected s.c. with 3×10^7 2LMP cells. […] The growth of tumors was monitored over time. […] Tumor size and regression rates were determined.
Data from 6 independent experiments were analyzed by individual experiment. Treatment combinations were compared with respect to in vivo anti-tumor efficacy, i.e., inhibition of tumor growth, which was measured as three endpoints; extension of tumor doubling times, percentage of tumor regressions, and growth rates over time. The actual number of days at which the tumor doubled in surface area (product of two diameters) relative to baseline on day 7 after tumor cell injection was used in the doubling time analysis. The nonparametric Kruskal-Wallis test was used for median tumor doubling time comparisons between treatments. Fisher's exact test was used to compare the proportions of tumor regressions and relapse-free regressions across treatment groups. To determine if any combination therapy produced significant synergistic inhibition of tumor growth, i.e., more than additive, the growth curves from the serial area measurements were compared using a linear mixed model approach over the first 3 weeks after start of therapy (Lindsey, J. K. Models for Repeated Measurements, pp. 100-142, Oxford, 1993). To test for synergistic effects of the combination therapies, an interaction term was included in the model. If the interaction term was significant and the effect was inhibition of growth at a rate greater than additive then the interaction was considered synergistic.
A total of 166 animals, 10 treatment groups, and 6 independent experiments were included in the aggregate analysis. Treatment combinations were compared with respect to in vivo anti-tumor efficacy. The median tumor doubling times were analyzed using the Kruskal-Wallis test and Fisher's exact test was used to compare the proportions of tumor regressions and relapse-free regressions across treatment groups.

2LMP xenografts = assay: Analysis of apoptosis in xenografts (TUNEL); type: in vivo, athymic nude mice; conditions: day 14
Procedure: One group of mice was untreated. The xenografts were dissected for the study of apoptosis on day 14 after tumor cell injection. The reason for the substantial reduction in treatment intensity compared to our standard treatment protocol was to allow adequate tumor tissue for analysis on day 14. Tunel assay for apoptosis in tumor xenografts was performed as follows. Five-micron paraffin sections of tissue were mounted on Superfrost/Plus slides and heated at 58° C. for 1 h. Tissue sections were deparaffinized in three changes of xylene and rehydrated with one change of absolute ethanol, 95% ethanol, and 70% ethanol, each in 5-min increments. Then, the sections were placed in Tris-buffered saline (0.5M Tris base, 0.15 M NaCl, 0.0002% Triton X-100™, pH 7.6). Apoptotic nuclei were detected using an Apop Tag Peroxidase kit (Intergen, Purchase, N.Y.). Proteinase K (20 μg/ml in distilled deionized H2O) was added to the tissue specimens and incubated at room temperature for 15 min. Endogenous peroxidases were quenched with an aqueous solution of 3% hydrogen peroxide for 5 min. Sections were treated with an equilibration buffer for 30 min and then incubated with the TdT/enzyme (diluted in labeling reaction mix) for 1 h at 37° C. using parafilm covers. During this incubation, the TdT enzyme binds the 3′-OH ends of DNA fragments and catalyzes the addition of digoxigenin-labeled and unlabeled deoxynucleotides. Negative controls were incubated with distilled H2O (diluted in labeling reaction mix) instead of the TdT enzyme. A stop buffer was added for 10 min at room temperature to terminate the labeling reaction. An anti-digoxigenin conjugate was added to each slide for 30 min. The chromagen 3,3′ DAB was used to visualize the labeled 3′ OH end of DNA fragments. The slides were then rinsed in deionized water and lightly counterstained with hematoxylin, dehydrated using graded alcohols and xylene and coverlsipped using Permount. Approximately 10 random fields were evaluated for percentage of Tunel stained and percentage of intensely stained apoptotic bodies throughout the tissue.

Jurkat cells = assay: Apoptosis-inducing activity of humanized antibody (XTT, 12 hours); type: cell-based, human; conditions: serial 2-fold dilutions from 100 ng/ml
Procedure: Jurkat cells cultured in RPMI1640 medium with 10% FCS (Gibco BRL) at 37° C. for 3 days in the presence of 5% CO2 are dispensed into each well of a 96-well microplate (Sumitomo Bakelite) at 50 μl per well. […] Each of the solutions of the expression products thus adjusted to 100 ng/ml is used to produce serial dilutions by repeating serial 2-fold dilution with RPM11640 containing 10% FCS. […] After reacting at 37° C. for 12 hours, 50 μl of 25 μM PMS (phenazine methosulfate; Sigma Chemical Co.) containing 1 mg/ml XTT (2,3-bis[2-methoxy-4-nitro-5-sulfophenyl]-2H-tetrazolium-5-carboxyaniride inner salt; Sigma Chemical Co.) is added (final concentrations of 250 μg/ml for XTT and 5 μM for PMS). After incubating for 3 hours, the absorbance at 450 nm of each well is measured to calculate the cell viability by using the reduction ability of mitochondria as the index.
The viability of the cells in each well is calculated according to the following formula: Viability(%)=100×(a−b)/(c−b) wherein “a” is the measurement of a test well, “b” is the measurement of a well with no cells, and “c” is the measurement of a well with no antibody added.

Question: Cn1cc(C2=C(c3cn(CCCN)c4ccccc34)C(=O)NC2=O)c2ccccc21 [BisVIII, Bisindolylmaleimide VIII] was tested. Which “sensitivity to induced cytotoxicity” value (CLL B cells) did it give?
Answer: The value was “sensitive”.

Question: How did the cell viability remaining (PC-3 cells) turn out when CC(=O)O[C@H]1C(=O)[C@@]2(C)[C@H]([C@H](OC(=O)c3ccccc3)[C@]3(O)C[C@H](OC(=O)[C@H](O)[C@@H](NC(=O)c4ccccc4)c4ccccc4)C(C)=C1C3(C)C)[C@]1(OC(C)=O)CO[C@@H]1C[C@@H]2O [Paclitaxel] was run?
Answer: The cell viability remaining was “more than 40%”.

Question: What about the “Complete Regressions No relapse (%)” value ([1]; number of animals (%)) of the same molecule?
Answer: The value was 0.

Question: And the “Complete Regressions Total (%)” value ([1]; number of animals (%))?
Answer: The value was 0.

Question: And the “Tumor Doubling Time (mean)” value ([1]; relative to day 7)?
Answer: Its value is 25 days.

Question: And the “Tumor Doubling Time (median)” value ([1]; relative to day 7)?
Answer: The value was 20 days.

Question: And the TUNEL stained cells (2LMP xenografts; 100 μg TRA-8 days 7, 10, adriamycin 3 mg/kg or paclitaxel 10 mg/kg days 8, 11, untreated 4%)?
Answer: Its TUNEL stained cells is 7%.

Question: And the intensely stained cells (2LMP xenografts; same regimen, untreated 1%)?
Answer: The intensely stained cells was 2%.

B1: humanized TRA-8: humanized TRA-8 of Example 20, cotransfection of pHB14-1 and pSR/M2-1 (H2 heavy, LM2 light chain) (antibody)
VH: EVMLVESGGGLVQPGGSLRLSCAASGFTFSSYVMSWVRQAPGKGLEWVATISSGGSYTYYPDSVKGRFTISRDNAKNTLYLQMNSLRAEDTAVYYCARRGDSMITTDYWGQGTLVTVSS
light: DIVMTQSPSSLSASVGDRVTITCKASQDVGTAVAWYQQKPGKAPKLLIYWASTRHTGVPSRFSGSGSGTDFTLTISSLQPEDFATYYCQQYSSYRTFGQGTKVEIKRTVAAPSVFIFPPSDEQLKSGTASVVCLLNNFYPREAKVQWKVDNALQSGNSQESVTEQDSKDSTYSLSSTLTLSKADYEKHKVYACEVTHQGLSSPVTKSFNRGEC
Question: For B1, which induction of apoptosis (Jurkat cells) is on record?
Answer: The induction of apoptosis was “induce apoptosis”.
